The test system of this test is HCV replicon (5-2 Luc replicon-comprising cells). Nature of the test: HCV replicon luciferase emission assay. It is filed as cell-based. The note with it: Hepatitis C virus; 5-2 Luc replicon cells, 24 hours with compound, 50% reduction in luciferase emission. An excerpt:
The inhibitory activity of certain exemplary compounds of the invention was confirmed using an HCV replicon assay. The HCV replicon can include such features as the HCV 5′ untranslated region including the HCV IRES, the HCV 3′ untranslated region, selected HCV genes encoding HCV polypeptides, selectable markers, and a reporter gene such as luciferase, GFP, etc. In the assay, actively dividing 5-2 Luc replicon-comprising cells (obtained from Rolf Bartenschlager; see Lohmann et al., 1999, Science 285:110-113) were seeded at a density of between about 5,000 and 7,500 cells/well onto 96 well plates (about 90 μl of cells per well) and incubated at 37° C. and 5% CO2 for 24 hours. Then, the test compound (in a volume of about 10 μl) was added to the wells at various concentrations and the cells were incubated for an additional 24 hours before luciferase assay. The media was aspirated from each well and Bright-Glo (Promega, Madison, Wis.) luciferase assay reagents were added to each well according to the manufacturer's instructions. Briefly, the Bright-Glo reagent was diluted 1:1 with PBS and 100 μl of diluted reagent was added to each well. After 5 min of incubation at room temperature, luciferin emission was quantified with a luminometer. In this assay, the amount of test compound that yielded a 50% reduction in luciferase emission (IC50) was determined.

The term IC50 denotes the concentration needed to halve the response being measured.

Turning to `O=C1c2ccccc2-c2onc3ccc(N4CC4)c1c23` [Compound 2], the IC50 turned out to be 800 nM.

Values taken from patent US20050143433A1, “Substituted heterocycles useful for treating HCV infection” (priority 2003, published 2005).
